Assay results as given in patent US7869664B2, “Systems and methods for alignment of objects in images” (priority 2007, dated 2011).
Like-named read-outs stand apart in the source and are kept apart here.

Key:
[1] = tested on: inbred mouse strains
Experimental: For the genetic analysis, the susceptibility of a panel of 16 inbred mouse strains to developing liver toxicity after a single 300 mg/kg intraperitoneal dose of acetaminophen was assessed. This dose is known to cause liver toxicity in mice. During the 24 hour period after dosing, serum alanine aminotransferase (ALT), morbidity and liver histochemistry were assessed as indices of liver toxicity.
Animal husbandry and drug treatment. Seven to eight week old male mice were obtained from Jackson Laboratory (Bar Harbor, Me.) and acclimatized for an additional week before use. The following 16 inbred mouse strains were studied: SJL, LGJ, BALB/cJ, DBA/2J, A/J, AKR/J, A/HeJ, 129/SvJ, B10.D2-H2/oSNJ, C57BL/6J, NZW/LaCJ, NZB/BInJ, MRL/MpJ, C3H/HeJ, LP/J, SM/J. The mice were housed under pathogen-free environment and provided food and water ad libitum with a 12h: 12h light: dark cycle until experimental use. Before each experiment, food was withheld from the animals overnight (greater than sixteen hours) to uniformly deplete hepatic glutathione stores. All mice were administered a single 300 mg/kg intraperitoneal dose of freshly prepared acetaminophen (Voigt Global Distribution Inc.) suspended in PBS (pH 7.4), and were allowed free access to food and water after treatment. The mice were euthanized by CO2 inhalation to collect blood samples and liver tissues at zero, three, and six hours after dosing. The remaining mice were monitored for 48 hours for the occurrence of acetaminophen-induced deaths. Blood samples were withdrawn by cardiac puncture and placed in EDTA-coated tubes, and plasma samples were isolated by centrifugation. Alanine aminotransferase (ALT) activity was measured at the Marshfield Clinic Laboratories (Marshfield, Wis.). Liver tissues were removed immediately and cut into two sections. The smaller section was fixed in buffered formalin, processed by standard histological techniques, stained with hematoxylin and eosin, and examined for histopathologic evidence of liver injury. The remaining sections were snap-frozen in liquid nitrogen and stored at −80° C. for gene expression and metabolite analysis.

[2] = tested on: Ddit3, Dnajb1, and Gadd45ga; experiment: Hepatic gene expression profiles (microarrays) after acetaminophen treatment; type: in vivo, mouse; settings: liver; SJL and three sensitive strains
Source text: Differential susceptibility to a hepatotoxic dose of acetaminophen could result from differences in the rate of production of the reactive quinone metabolite that causes liver toxicity. […] Thus, a hepatotoxic dose of acetaminophen induces the formation of protein adducts and activates the DNA damage response in resistant SJL mice to the same extent as in the susceptible strains.
Therefore, the metabolites within the peaks that distinguished the response of the resistant strain from the three sensitive strains at zero and three hours after drug exposure were identified. […] Using resonance assignments and confirmation experiments with purified compounds, the identity of eight of these nine peaks was determined. Three peaks were assigned to glutathione. […] Five other metabolite peaks were assigned to alanine, lactate and betaine. Microarrays were simultaneously used to analyze gene expression in liver obtained from these four strains before (zero hr) and three hours after acetaminophen administration. […] This large number of differentially expressed genes limited the utility of analyzing the gene expression data by itself. However, an integrated analysis of the gene expression and metabolite data provided a more restricted set of pathways and genes to consider. […]

[3] = tested on: hepatic acetaminophen-protein adducts; settings: resistant SJL strain compared with sensitive C57B6 strain; previously shown; cited from earlier work
[4] = tested on: hepatic glutathione; experiment: Endogenous liver metabolite profiling by 1H-13C two-dimensional NMR after acetaminophen exposure; type: in vivo, mouse; settings: three hours after acetaminophen administration
Experimental: Analysis of acetaminophen-induced endogenous metabolite and gene expression changes. Endogenous metabolites and gene expression changes in liver were examined at 0, 3 and 6 hours after acetaminophen exposure in the resistant (SJL) and three sensitive strains (DBA, SMJ and C57) strains in order to identify the pathways and genes contributing to resistance to acetaminophen-induced liver toxicity. The endogenous metabolites were profiled using ^1H—^13C two-dimensional-NMR analysis. Over 400 metabolite peaks were quantified and analyzed by this method, and principal component analysis (PCA) (Duda, 2001, Pattern Classification, John Wiley & Sons, Inc., pp. 568-569, which is hereby incorporated by reference herein) was used to identify metabolite peaks that distinguished the response of the sensitive strain from the three resistant strains. […]
Therefore, the metabolites within the peaks that distinguished the response of the resistant strain from the three sensitive strains at zero and three hours after drug exposure were identified. […] Using resonance assignments and confirmation experiments with purified compounds, the identity of eight of these nine peaks was determined. […]
NMR spectra were recorded at 300°K on a Bruker Avance 600 MHz spectrometer operating at ^1H frequency of 599.99 MHz and ^13C frequency of 150.87 MHz using a 3 mm Nalorac microprobe with z-axis pulsed-field gradient. […]

With `CC(=O)Nc1ccc(O)cc1` [acetaminophen] the mortality ([1]; 15 sensitive strains, single 300 mg/kg intraperitoneal dose) was “mortality in a significant percent of the mice”, the mortality ([1]; C57B6 mice, within six hours after dosing) was 100% and the “time at which mortality occurred after dosing” value ([1]; DBA/2 strain) was 48 h. For the same compound, the mortality ([1]; SJL mice, single 300 mg/kg intraperitoneal dose) was “no mortality”, the survival ([1]; SJL mice, within forty-eight hours after treatment) was “all SJL mice survived” and the “time at which mortality occurred after dosing” value ([1]; SMJ strain) was 24 h. The “increase in serum ALT” value ([1]; mouse, in vivo, ip, 300 mg/kg) was “much smaller and transient increase”, the mortality ([1]; three sensitive strains (C57BL6, DBA/2, SMJ), within forty-eight hours after treatment) was “at least 60%” and the “level of expression of three DNA damage response genes (Ddit3, Dnajb1, Gadd45ga)” value [2] was “increased to the same extent in all four strains”. For the same compound, the “hepatic acetaminophen-protein adducts generated” value [3] was “same amount of hepatic acetaminophen-protein adducts”, the hepatic glutathione concentration ([4]; SJL strain) was “maintained its hepatic glutathione concentration” and the hepatic glutathione levels ([4]; three sensitive strains) was “significantly decreased”.
